Assay results: patent US20240002470A1, “Method for separation and/or detection and/or in vitro quantification of infectious compounds in biological material” (priority 2020, published 2024)

Columns and labels:
[1] = test system: ISAV virus (Infectious salmon anemia virus); experiment: Capture of ISAV virus on magnetic microbeads coated with pepβ2GPI, RT-PCR quantification; format: binding; settings: for ISAV copies: virus captured on coated beads from culture supernatant
Text: The virus used is the ISAV virus (Infectious salmon anemia virus), responsible for anemia in salmon, originating from a culture supernatant.
The microbeads, intended to fix the virus, which are used are magnetic microbeads sold by the company MERCK under the name “Estapor® super-paramagnetic microspheres” which have a diameter between […].
(§1) The pepβ2GPI were grafted onto the microbeads according to the supplier's recommendations. In summary, the microbeads are suspended in phosphate buffer at a pH of 6.0. The beads are then activated, for 15 minutes, in the presence of 1-ethyl-3-(3-Dimethylaminopropyl) carbodiimide and N-hydroxysuccinimide. After washing with HCl, 2 mM, the beads are suspended in a phosphate buffer at a pH of 7.5, containing the pepβ2GPI. The concentration of pepβ2GPI in this coupling buffer is 20 mg/L; the microbeads are incubated in the buffer with gentle and constant shaking at a temperature of 25° C. for 3 hours. The microbeads are then centrifuged at 1,500 rpm and the supernatant is removed; the centrifugation pellet is suspended in the same buffer as that used for the coupling of pepβ2GPI, which forms the suspension of microbeads coated with pepβ2GPI which we want to test.
(§2) One hundred microliters of viral culture supernatant to be studied are placed in an Eppendorf tube with 900 microliters of Tris buffer at a pH of 7.5 and 10 microliters of microbeads. The tubes are shaken horizontally to mix the microbeads well, and each tube is incubated at 37° C. or at room temperature (RT=22° C.) for 30 minutes. In each tube, the microbeads are then separated from the liquid phase by means of a magnet, placed externally against the wall of the tube, and the viral RNA is extracted. The beads are brought into contact with a viral lysis buffer, included in an RNA extraction kit: QIAamp RNA viral kit, sold by QIAGEN and the viral RNA is isolated according to the seller's recommendations.
The RNA is then transcribed into complementary DNA, in the presence of reverse transcriptase, according to the following protocol:
Finally, the complementary DNA (cDNA) is amplified by chain reaction using a polymerase and quantified according to the following protocol: […]

[2] = test system: IPN virus (Infectious pancreatic necrosis virus); experiment: Capture of IPN virus on magnetic microbeads coated with pepβ2GPI, RT-PCR quantification; format: binding; settings: for IPN Copies: virus captured on coated beads from culture supernatant
Method: as §1, §2
The virus used is the IPN virus (Infectious pancreatic necrosis virus), responsible for necrosis of the pancreas in salmon, originating from a culture supernatant. The same protocol as described in example 1 was carried out.

E. coli B6054 [3] = experiment: Capture of E. coli B6054 on magnetic microbeads, culture on TS agar and counting; format: binding, Escherichia coli; settings: E. coli B6054 colonies from captured beads
E. coli ATCC 8739 = experiment: Capture of E. coli ATCC 8739 on magnetic microbeads, culture and counting; format: binding, Escherichia coli; settings: E. coli ATCC 8739 colonies from captured beads
Method: (§3) One ml of the culture of bacteria to be studied is placed in a hemolysis tube. 100 μl of buffer are added, the trade name of which is TTGB, then 20 μl of microbeads. The tube is stirred horizontally, to mix the microbeads well, and incubated at 37° C. or at room temperature (TA=22° C.) for half an hour. At the end of the incubation, the microbeads are separated from the liquid phase by means of a magnet, placed externally against the wall of the tube. The microbeads are then washed twice with LB medium and then resuspended in 1 ml of BTS culture medium (Tripticase-Soy broth) having the following formulation: […]
(§4) This culture medium is brought to a boil and then autoclaved, to make it sterile, before use. 20 μl of the microbead suspension are taken and spread in a Petri dish containing TS agar (Trypticase-Soya agar) having the following formulation: […]
(§5) The Petri dishes are incubated at +37° C. for 24 hours. The bacteria that have grown on the agar are then counted.
The used bacteria were obtained from a collection strain of Escherichia coli (E. coli), ATCC 8739. The same experiment as that described in the previous example was carried out.

[4] = test system: bacteria present in treated wastewater; experiment: Capture of bacteria present in treated wastewater on magnetic microbeads, culture and counting; format: binding
Method: as §3, §4, §5
The beads, on which β2GPI and peptides derived therefrom were grafted, were used to capture the bacteria present in treated wastewater. This water was recovered at the outlet of the purifier from the Grau-du-Roi treatment plant. The same experiment as that described in the previous example was carried out.

Yeast = experiment: Capture from blood culture on magnetic microbeads, culture on TS agar: yeast; format: binding
Method: (§6) The beads, on which β2GPI and peptides derived therefrom were grafted, were used for the capture of bacteria present in human blood and highlighted by blood culture.
(§7) These blood cultures are carried out by placing a venous blood sample […] in aerobic vials of BacT/ALERT®3D type. These flasks are then incubated in an automated system at 35° C. for at least 5 days. The bottles are equipped with a colorimetric detection system with a sensor located at the base of each bottle. Carbon dioxide produced by growing bacteria changes the color of the sensor; this change in color is detected by an automated system and indicates the presence of bacterial growth: these blood cultures are said to be positive. In the BacT/ALERT®3D vials there are particles of activated carbon, which inhibit antibiotics potentially present in the blood of patients, thereby improving the detection of microorganisms. To confirm the presence of bacteria in blood cultures which have been found positive, the hospital performs a culture on blood agar. […]
(§8) To test the interaction of microbeads coated with β2GPI and the peptides derived from them, with bacteria present in the blood, 1 ml of blood culture is taken from each sample and placed in a 15 ml tube. […] The bacteria that have grown on the agar were then counted.

E. faecium = experiment: Capture from blood culture on magnetic microbeads, culture on TS agar: E. faecium; format: binding
Method: as §6, §7, §8

S. maltophilia = experiment: Capture from blood culture on magnetic microbeads, culture on TS agar: S. maltophilia; format: binding
Method: as §6, §7, §8

E. coli B6054 [5] = experiment: Capture on magnetic microbeads coated with pepβ2GPI: H61 E. coli B6054; format: binding
Method: To test the interaction of microbeads coated with β2GPI and the peptides derived from them, with bacteria present in the blood, 1 ml of blood culture is taken from each sample and placed in a 15 ml tube. 20 μl of microbeads are added and each tube is incubated at 37° C. with horizontal shaking. The tubes are then placed in a magnetic field which retains the microbeads on the wall and the supernatant is removed. The microbeads are then washed twice with sterile PBS, of the same composition as previously indicated; the microbeads are then resuspended in 150 μl of BTS culture medium. Two methods for detecting bacteria captured by microbeads were used: culture on TS agar and PCR For the detection of the bacterial capture by culture, 50 μl of the suspension of microbeads thus obtained are taken and they are spread out in a Petri dish containing TS agar. Petri dishes are incubated in an oven at 37° C. for 24 hours. The bacteria that have grown on the agar were then counted.
The tested bacteria are: C3 E. coli ATCC 11105, C5 S. aureus ATCC 6538, H61 E. coli B6054, C1: E. coli ATCC 8739, H46: C. albicans 1 and H: 60 SCN
The same protocol and primers as those described in example 9 were carried out.

| Molecule | % compared to β2GPI ([1]; ISAV copies captured relative to β2GPI beads) | ISAV copies [1] | % compared to β2GPI ([2]; IPN copies captured relative to β2GPI beads) | IPN Copies [2] [copies] | % compared to β2GPI (E. coli B6054 [3]) [%] | % compared to β2GPI (E. coli ATCC 8739) [%] | % compared to β2GPI [4] [%] | % compared to β2GPI (Yeast) [%] | % compared to β2GPI (E. faecium) [%] | % compared to β2GPI (S. maltophilia) [%] | Capture of H61 E. coli B6054 (E. coli B6054 [5]) [%] |
| --- | --- | --- | --- | --- | --- | --- | --- | --- | --- | --- | --- |
| H-((SSLAFWK)2-K)2-K—NH2 [Peptide P11] | (140%) | 78 350 copies | (175%) | 21 | 91 | 99 | 105 | 89 | 88 | 29 | 90 |
| β2GPI: plasma glycoprotein called β2-glycoprotein I, grafted on beads as the reference (protein, UniProt P02749 20-345, looked up, grafted on beads) Beta-2-glycoprotein 1: GRTCPKPDDLPFSTVVPLKTFYEPGEEITYSCKPGYVSRGGMRKFICPLTGLWPINTLKCTPRVCPFAGILENGAVRYTTFEYPNTISFSCNTGFYLNGADSAKCTEEGKWSPELPVCAPIICPPPSIPTFATLRVYKPSAGNNSLYRDTAVFECLPQHAMFGNDTITCTTHGNWTKLPECREVKCPFPSRPDNGFVNYPAKPTLYYKDKATFGCHDGYSLDGPEEIECTKLGNWSAMPSCKASCKVPVKKATVVYQGERVKIQEKFKNGMLHGDKVSFFCKNKEKKCSYTEDAQCIDGTIEVPKCFKEHSSLAFWKTDASDVKPC | – | 55 800 copies | – | 12 | 100 | 100 | 100 | 100 | 100 | 100 | – |
